Source: patent US5607960A, “Indole derivatives as 5-HT1-like agonists for use in migraine” (Pfizer Inc., priority 1993, dated 1997)

Experiments:
"5-HT1 -like" receptor [1] = biological target: T1, "5-HT1 -like" receptor (Canis lupus familiaris, UniProt P79250); experiment: contraction of dog isolated saphenous vein strip (in vitro "5-HT1 -like" receptor agonist activity); assay type: cell-based; conditions: for EC50: concentration which causes 50% of the maximum contraction effected by the compound; for RELATIVE POTENCY EC50 (compound) / EC50 (5-HT): ratio to 5-HT
T1 construct: dog isolated saphenous vein strip; from tissue; host or cells: dog isolated saphenous vein strip
Source text: EC50 represents the concentration of compound which causes 50% of the maximum contraction effected by it.

[2] = acute toxicity in conscious dog, i.v.; assay type: in vivo; conditions: doses of up to 1 mg/Kg i.v.
[3] = acute toxicity in conscious mouse, i.v.; assay type: in vivo; conditions: doses of up to 10 mg/Kg i.v.
"5-HT1 -like" receptor [4] = biological target: T1, "5-HT1 -like" receptor; conditions: cited from earlier work
carotid vascular bed = conditions: anaesthetized dog; cited from earlier work

T1 sequence (P79250 whole entry): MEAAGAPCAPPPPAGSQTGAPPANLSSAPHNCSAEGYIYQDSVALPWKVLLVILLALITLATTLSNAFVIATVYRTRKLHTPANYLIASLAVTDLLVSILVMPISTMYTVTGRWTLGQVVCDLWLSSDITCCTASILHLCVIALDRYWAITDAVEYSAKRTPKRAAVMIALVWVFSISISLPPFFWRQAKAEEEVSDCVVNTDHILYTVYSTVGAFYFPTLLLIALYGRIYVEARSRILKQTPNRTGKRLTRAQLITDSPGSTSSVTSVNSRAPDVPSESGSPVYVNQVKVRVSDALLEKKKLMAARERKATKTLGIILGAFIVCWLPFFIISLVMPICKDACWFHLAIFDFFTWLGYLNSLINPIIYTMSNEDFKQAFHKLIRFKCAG

CC(C)(O)CCc1ccc2[nH]cc(C[C@H]3CCCN3)c2c1 [Example 29, 5-(3-Hydroxy-3-methyl-1-butyl)-3-(2(R)-pyrrolidinylmethyl)-1H-indole]
EC50 ("5-HT1 -like" receptor [1]): 0.67 µM | RELATIVE POTENCY EC50 (compound) / EC50 (5-HT) ("5-HT1 -like" receptor [1]): 9.0 | signs of adverse acute toxicity [2]: no signs of adverse acute toxicity | signs of adverse acute toxicity [3]: no signs of adverse acute toxicity

CC(=O)CCc1ccc2[nH]cc(C[C@H]3CCCN3)c2c1 [Example 37, 5-(3-Oxo-1-butyl)-3-(2(R)-pyrrolidinylmethyl)-1H-indole]
EC50 ("5-HT1 -like" receptor [1]): 0.13 µM | RELATIVE POTENCY EC50 (compound) / EC50 (5-HT) ("5-HT1 -like" receptor [1]): 1.3

CNS(=O)(=O)Cc1ccc2[nH]cc(CCN(C)C)c2c1 [Sumatriptan, sumatriptan]
contraction of the isolated dog saphenous vein strip ("5-HT1 -like" receptor [4]; P.P.A. Humphrey et al., Brit. J. Pharmacol., 1988, 94, 1123): contracting the isolated dog saphenous vein strip | carotid arterial blood flow (carotid vascular bed): decrease in carotid arterial blood flow | carotid vascular resistance (carotid vascular bed): selective increase in carotid vascular resistance

CC(O)(CCc1ccc2[nH]cc(C[C@H]3CCCN3)c2c1)C(F)(F)F (stereo partly drawn) [Example 95, 5-(3-Hydroxy-3-trifluoromethyl-1-butyl)-3-(2(R)-pyrrolidinylmethyl)-1H-indole]
EC50 ("5-HT1 -like" receptor [1]): 0.32 µM | RELATIVE POTENCY EC50 (compound) / EC50 (5-HT) ("5-HT1 -like" receptor [1]): 4.0

CC(C)(O)CCc1ccc2[nH]cc(C[C@H]3CCCN3CCc3ccncc3)c2c1 [Example 30, 5-(3-Hydroxy-3-methyl-1-butyl)-3-{N-[2-(4-pyridyl)ethyl]-2(R)-pyrrolidinylmethyl}-1H-indole]
EC50 ("5-HT1 -like" receptor [1]): 0.94 µM | RELATIVE POTENCY EC50 (compound) / EC50 (5-HT) ("5-HT1 -like" receptor [1]): 7.2

OC1(CCc2ccc3[nH]cc(C4CCNC4)c3c2)CCCC1 (centres unmarked) [Example 109, 5-[2-(1-Hydroxycyclopentyl)ethyl]-3-(3-pyrrolidinyl)-1H-indole]
EC50 ("5-HT1 -like" receptor [1]): 0.75 µM | RELATIVE POTENCY EC50 (compound) / EC50 (5-HT) ("5-HT1 -like" receptor [1]): 8.5

CN(C)C(=O)CCN1CCC[C@@H]1Cc1c[nH]c2ccc(CCC3(O)CCOC3)cc12 (stereo partly drawn) [Example 101, 5-[2-(3-Hydroxy-3-tetrahydrofuranyl)ethyl]-3-{N-[2-(N,N-dimethylcarbamoyl)ethyl]-2(R)-pyrrolidinylmethyl}-1H-indole]
EC50 ("5-HT1 -like" receptor [1]): 0.7 µM | RELATIVE POTENCY EC50 (compound) / EC50 (5-HT) ("5-HT1 -like" receptor [1]): 10.0

CN1CCC[C@@H]1Cc1c[nH]c2ccc(C=CC(C)(C)O)cc12 [Example 1, 5-(3-Hydroxy-3-methyl-1-but-1-enyl)-3-(N-methyl-2(R)-pyrrolidinylmethyl)-1H-indole]
EC50 ("5-HT1 -like" receptor [1]): 0.4 µM | RELATIVE POTENCY EC50 (compound) / EC50 (5-HT) ("5-HT1 -like" receptor [1]): 7.7

CSc1ccc2c(c1)C(N1CCN(C)CC1)Cc1ccccc1S2 (centres unmarked) [methiothepin]
blockade of the contraction effect ("5-HT1 -like" receptor [4]; isolated dog saphenous vein strip, known 5-HT antagonist): blocked

CC(O)CCc1ccc2[nH]cc(C3CCN(C)CC3)c2c1 (centres unmarked) [Example 43, 5-(3-Hydroxy-1-butyl)-3-(N-methyl-4-piperidyl)-1H-indole]
EC50 ("5-HT1 -like" receptor [1]): 0.56 µM | RELATIVE POTENCY EC50 (compound) / EC50 (5-HT) ("5-HT1 -like" receptor [1]): 8.0

CC(C)(O)CCc1ccc2[nH]cc(CCN)c2c1 [Example 48, 3-(2-Aminoethyl)-5-(3-hydroxy-3-methyl-1-butyl)-1H-indole]
EC50 ("5-HT1 -like" receptor [1]): 0.3 µM | RELATIVE POTENCY EC50 (compound) / EC50 (5-HT) ("5-HT1 -like" receptor [1]): 3.2

CC(C)(O)CCc1ccc2[nH]cc(C[C@H]3CCCN3CC3CC3)c2c1 [Example 25, 3-(N-Cyclopropylmethyl-2(R)-pyrrolidinylmethyl)-5-(3-hydroxy-3-methyl-1-butyl)-1H-indole]
EC50 ("5-HT1 -like" receptor [1]): 0.48 µM | RELATIVE POTENCY EC50 (compound) / EC50 (5-HT) ("5-HT1 -like" receptor [1]): 6.4
